Data as given in paper PMC10517971, “An inverse agonist of orphan receptor GPR61 acts by a G protein-competitive allosteric mechanism” (Nature Communications, 2023).
Where “and” joins values, the source holds several entries; their conditions need not be identical. Identical values can stand only once. Like-named read-outs stand apart in the source and are kept apart here.

What was measured:
[1] = biological target: Human PDE1B1 (Homo sapiens, UniProt Q01064); assay: Phosphodiesterase Assay (SPA); assay type: biochemical
Chain of Human PDE1B1 (Q01064 whole entry): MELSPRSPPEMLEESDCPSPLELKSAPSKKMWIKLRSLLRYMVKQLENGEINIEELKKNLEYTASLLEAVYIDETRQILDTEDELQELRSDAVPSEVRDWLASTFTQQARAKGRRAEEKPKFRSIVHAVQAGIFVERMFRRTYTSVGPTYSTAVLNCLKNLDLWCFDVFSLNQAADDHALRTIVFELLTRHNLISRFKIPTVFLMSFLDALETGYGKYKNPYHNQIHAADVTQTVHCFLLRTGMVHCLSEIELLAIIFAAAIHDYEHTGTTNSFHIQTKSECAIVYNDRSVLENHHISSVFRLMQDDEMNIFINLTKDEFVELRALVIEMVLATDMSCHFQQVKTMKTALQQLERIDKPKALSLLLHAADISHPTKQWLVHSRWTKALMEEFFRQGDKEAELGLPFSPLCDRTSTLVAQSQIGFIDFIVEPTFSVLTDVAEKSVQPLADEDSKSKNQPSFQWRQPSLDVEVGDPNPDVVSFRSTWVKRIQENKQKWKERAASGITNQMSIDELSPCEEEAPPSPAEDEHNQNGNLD

[2] = biological target: T1, human GPR61 N137A (Homo sapiens, UniProt Q9BZJ8, N137A); assay: Functional cAMP assay (HTRF), transiently transfected CHO-K1 cells, GPR61 N137A mutant; assay type: cell-based; parameters: key to cAMP response (Figure 3e source data): nM cAMP per well, from standard curve; conditions: for IC50: Fig. 3e table
T1 construct: expressed in transfected cells; host or cells: CHO-K1, transient (Fugene6)
T1 sequence (Q9BZJ8 whole entry N137A): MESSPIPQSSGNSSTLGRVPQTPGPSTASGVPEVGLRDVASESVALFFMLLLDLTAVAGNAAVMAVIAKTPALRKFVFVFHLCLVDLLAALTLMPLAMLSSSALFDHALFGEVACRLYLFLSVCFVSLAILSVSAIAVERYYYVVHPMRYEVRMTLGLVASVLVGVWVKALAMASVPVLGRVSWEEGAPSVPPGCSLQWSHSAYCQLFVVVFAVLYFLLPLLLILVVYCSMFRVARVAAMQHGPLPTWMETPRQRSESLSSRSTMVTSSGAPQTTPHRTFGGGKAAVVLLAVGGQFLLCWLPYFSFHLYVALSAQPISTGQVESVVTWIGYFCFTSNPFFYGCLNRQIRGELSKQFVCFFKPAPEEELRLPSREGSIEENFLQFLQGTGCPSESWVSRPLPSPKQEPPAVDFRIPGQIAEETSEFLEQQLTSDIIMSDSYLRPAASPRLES
Description: The human GPR61 (reference sequence NM_031936.4) cDNA was synthesized and subcloned into pcDNA5/FRT/TO (Thermo Fisher, Pittsburgh, PA). The pcDNA5/FRT/TO/ human GPR61 plasmid was then transfected into the Flp-In™-CHO Cell Line (Thermo Fisher, Pittsburgh, PA) and a doxycycline-inducible clonal cell line was selected (CHO TREx hGPR61 WT). Sequences encoding untagged and HiBit/hemagglutinin (HA)-tagged versions of the wild-type human GPR61 were synthesized and cloned into pcDNA3.1. The HiBit ([…]) and HA ([…]) tags were sequentially included after the N-terminal initiator methionine. Four single amino acid substitutions (N137A, R140A, V288A, N345A) were then introduced in the untagged and tagged human GPR61 constructs using site-specific mutagenesis. The nucleotide sequences of all receptor constructs were confirmed by automated DNA sequencing.
Parental CHO-K1 cells were maintained at 37 °C in a humidified environment (5% CO2) and grown in Dulbecco’s Modified Eagle Medium (DMEM) F-12 media (Gibco, 11320033) supplemented with 10% FBS, 1% Glutamax (Gibco, 35050061) and 100units/ml penicillin and streptomycin (Gibco, 15140122. Cells were dissociated using a cell dissociation solution (Gibco, 13151-014), counted, and resuspended in complete culture media without antibiotics. Cells were then transiently transfected using Fugene6 (Promega) in a 384-well plate format (Corning, 3570). For each well, 7500 cells were transfected with 5 ng of receptor plasmid, 20 ng of carrier DNA (Promega, PAE4881) and 0.075 μl Fugene6 in a final volume of 25 μl. Fugene6 and DNA were separately diluted in Optimem media (Gibco, 31985070) (1.25 μl final volume each). Fugene6 and DNA solutions were then combined and incubated for 15 min at room temperature. The cell containing solution (22.5 μl) was then added and transfection reactions were mixed and transferred to the assay plate. Following 24 h incubation at 37 °C, wells were rinsed once and 25 μl of HiBit assay buffer (Phenol-red free DMEM F-12 media containing 2% FBS) was added per well. Surface and total receptor expression was measured separately by adding 25 μl per well of the extracellular (Promega, PRN2421) and lytic (Promega, PRN3040) assay solutions, respectively. Plates were incubated for 10 min at room temperature on a shaker and luciferase activity was measured using an EnVision plate reader (Perkin Elmer, Chicago, IL). Expression was normalized as percent of the wild-type receptor signal. Statistical comparisons of expression levels observed with WT versus GPR61 mutants were made by one-way analysis of variance with Dunnett’s post hoc test.
A homogeneous Time-Resolved Fluorescence (HTRF) assay (Perkin Elmer, Dynamic2 kit #) was used to assess receptor basal and inverse agonist activity at human GPR61, GPR62, and GPR101. For routine inverse agonist screening frozen CHO TREx human GPR61, GPR62 and GPR101 cells were used. Cells were thawed, resuspended in complete assay media (DMEM F-12, 10% HI FBS, 100 μg/mL Normocin, 700 μg/mL Hygromycin B and 15 μg/mL Blasticidin) containing 1ug/ml doxycycline, plated in white 384 well plates (Corning, 3570) at a density of 750 cells/well (25 μl/ well) and cultured at 37 °C in an incubator overnight. For studies assessing basal and inverse agonist activity at human GPR61 mutants, CHO-K1 cells were transiently transfected using Fugene6, plated in white 384 well plates (7500 cells/well) and grown overnight at 37 °C, as described for receptor expression studies. […]

[3] = biological target: Human PDE2A1 (Homo sapiens, UniProt O00408); assay: Phosphodiesterase Assay (SPA); assay type: biochemical
Chain of Human PDE2A1 (O00408 1-920 isoform O00408-2): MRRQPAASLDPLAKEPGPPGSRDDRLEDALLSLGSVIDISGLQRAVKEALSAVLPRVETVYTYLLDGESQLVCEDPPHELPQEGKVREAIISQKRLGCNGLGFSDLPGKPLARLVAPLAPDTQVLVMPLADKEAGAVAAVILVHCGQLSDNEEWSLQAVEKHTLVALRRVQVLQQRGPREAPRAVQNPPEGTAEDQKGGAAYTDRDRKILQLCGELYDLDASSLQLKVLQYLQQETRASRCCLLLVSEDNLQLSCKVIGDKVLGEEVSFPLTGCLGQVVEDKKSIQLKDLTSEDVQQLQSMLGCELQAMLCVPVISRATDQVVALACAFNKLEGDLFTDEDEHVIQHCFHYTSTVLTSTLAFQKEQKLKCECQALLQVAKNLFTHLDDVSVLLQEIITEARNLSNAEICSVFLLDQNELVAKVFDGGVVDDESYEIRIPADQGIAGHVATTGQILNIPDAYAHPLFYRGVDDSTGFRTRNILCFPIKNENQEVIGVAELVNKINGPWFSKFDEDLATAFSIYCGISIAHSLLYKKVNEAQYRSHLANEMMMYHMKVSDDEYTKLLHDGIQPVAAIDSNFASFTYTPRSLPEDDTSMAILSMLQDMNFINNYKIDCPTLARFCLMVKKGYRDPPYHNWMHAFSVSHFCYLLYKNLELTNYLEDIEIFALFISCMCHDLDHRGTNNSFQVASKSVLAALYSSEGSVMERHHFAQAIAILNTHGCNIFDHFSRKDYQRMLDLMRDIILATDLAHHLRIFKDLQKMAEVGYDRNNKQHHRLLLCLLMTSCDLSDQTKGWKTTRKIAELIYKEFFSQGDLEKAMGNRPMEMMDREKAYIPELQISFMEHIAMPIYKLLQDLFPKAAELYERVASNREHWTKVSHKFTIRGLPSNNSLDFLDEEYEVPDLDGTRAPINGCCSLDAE

[4] = biological target: Human PDE10A1 (Homo sapiens, UniProt Q9Y233); assay: Phosphodiesterase Assay (SPA); assay type: biochemical
Chain of Human PDE10A1 (Q9Y233 1-779 isoform Q9Y233-1): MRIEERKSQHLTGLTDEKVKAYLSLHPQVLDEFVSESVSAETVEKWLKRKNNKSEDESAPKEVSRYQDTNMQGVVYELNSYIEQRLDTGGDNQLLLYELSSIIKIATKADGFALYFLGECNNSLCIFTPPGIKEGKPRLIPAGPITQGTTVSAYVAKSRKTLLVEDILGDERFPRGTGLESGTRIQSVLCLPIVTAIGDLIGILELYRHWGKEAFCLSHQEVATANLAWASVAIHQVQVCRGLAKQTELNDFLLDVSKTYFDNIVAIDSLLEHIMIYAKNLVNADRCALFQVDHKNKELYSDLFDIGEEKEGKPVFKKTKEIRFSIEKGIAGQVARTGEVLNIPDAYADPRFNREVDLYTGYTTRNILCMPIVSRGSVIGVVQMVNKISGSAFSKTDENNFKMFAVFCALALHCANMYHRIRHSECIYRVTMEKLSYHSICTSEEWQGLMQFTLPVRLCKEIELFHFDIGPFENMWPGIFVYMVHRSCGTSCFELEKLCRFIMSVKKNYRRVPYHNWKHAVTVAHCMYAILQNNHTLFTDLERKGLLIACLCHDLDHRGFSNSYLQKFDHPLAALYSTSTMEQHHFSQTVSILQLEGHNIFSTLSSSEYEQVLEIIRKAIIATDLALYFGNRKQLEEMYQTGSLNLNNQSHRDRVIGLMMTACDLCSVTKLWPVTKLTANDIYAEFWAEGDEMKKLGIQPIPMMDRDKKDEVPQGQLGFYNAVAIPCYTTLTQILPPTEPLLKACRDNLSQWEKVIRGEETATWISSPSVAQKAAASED

For CCOc1cc(C)nc(N(CCOC)S(=O)(=O)c2ccc(NCc3c(F)cncc3F)nc2OC)n1 [Compound 1], the IC50 [1] was over 40 µM, the “reduction of potency relative to wild-type in the cAMP assay” value ([2]; Asn137 to Ala mutation vs wild-type) was “about 100 fold” and the IC50 ([2]; HiBit-tagged, read-out: GPR61 cAMP IC50 (95% CI), N137A HiBit-tagged) was 3.34 µM. The IC50 ([2]; untagged, read-out: GPR61 cAMP IC50 (95% CI), N137A Untagged) was 1.73 µM, the “cAMP response (Figure 3e source data)” value ([2]; HiBit N137A, concentration -6.5) was 4.93 and 5.62 and 3.82 and 3.87 and 6.18 and 6.86 and the “cAMP response (Figure 3e source data)” value ([2]; HiBit N137A, concentration -7.5) was 4.76 and 5.49 and 3.72 and 4.04 and 6.75 and 6.55. For the same compound, the “cAMP response (Figure 3e source data)” value ([2]; HiBit N137A, concentration -8) was 6.63 and 6.17 and 3.76 and 4.15 and 6.97 and 7.08, the “cAMP response (Figure 3e source data)” value ([2]; HiBit N137A, concentration -9) was 2.87 and 4.76 and 3.00 and 3.25 and 3.54 and the “cAMP response (Figure 3e source data)” value ([2]; Untagged N137A, concentration -6) was 4.52 and 4.56 and 3.59 and 3.47 and 5.45 and 5.98. It also gave an IC50 [3] of over 200 µM and an IC50 [4] of over 40 µM.
